# Where two headings read alike, the source gives them in different places.
# Columns and labels:
# [1] = tested on: newly diagnosed patients with FLT3-mutant AML; settings: sorafenib plus induction chemotherapy; 15 newly diagnosed patients with FLT3-mutant AML; cited from earlier work
# [2] = Plasma concentrations of midostaurin and metabolites; settings: for Plasma concentration, Max / Plasma concentration, Median / Plasma concentration, Min: 50 mg BID
# [3] = tested on: newly diagnosed patients with acute myeloid leukemia (AML); settings: 50 mg twice daily; either arm
# [4] = tested on: patients with FLT3-mutant and FLT3-wild-type AML; settings: single agent, cited from earlier work; for Patients with ≥ 50% peripheral blood blast reduction: 75 mg three times daily or 50 mg or 100 mg twice daily
# [5] = tested on: newly diagnosed patients with acute myeloid leukemia (AML); assay: Phase 1b trial: efficacy; format: in vivo, human
# [6] = Concomitant (days 1-7 and 15-21), Induction cycle 1, day 1
# [7] = Concomitant, First consolidation cycle, day 1.5
# [8] = Concomitant, First consolidation cycle, day 15.5
# [9] = Concomitant, First consolidation cycle, day 29.5
# [10] = Concomitant, Induction cycle 1, Day 1 (+ 2 h)
# [11] = Concomitant, Induction cycle 1, Day 1 (+ 4 h)
# [12] = Concomitant, Induction cycle 1, day 2
# [13] = Concomitant, Induction cycle 1, day 4
# [14] = Concomitant, Induction cycle 1, day 15 (+ 2 h)
# [15] = Concomitant, Induction cycle 1, day 15 (+ 4 h)
# [16] = Sequential (days 8-21), Induction cycle 1, day 8
# [17] = Sequential, First consolidation cycle, day 1.5
# [18] = Sequential, First consolidation cycle, day 15.5
# [19] = Sequential, First consolidation cycle, day 29.5
# [20] = Sequential, Induction cycle 1, day 8 (+ 2 h)
# [21] = Sequential, Induction cycle 1, day 8 (+ 4 h)
# [22] = Sequential, Induction cycle 1, day 9
# [23] = Sequential, Induction cycle 1, day 15
# [24] = Sequential, Induction cycle 1, day 22.5
# [25] = Sequential, Induction cycle 1, day 29.5
smiles,measurement,setting,value
CNC(=O)c1cc(Oc2ccc(NC(=O)Nc3ccc(Cl)c(C(F)(F)F)c3)cc2)ccn1 [Sorafenib],CR rate,[1],93%
"CO[C@@H]1[C@H](N(C)C(=O)c2ccccc2)C[C@H]2O[C@]1(C)n1c3ccccc3c3c4c(c5c6ccccc6n2c5c31)C(=O)NC4 [midostaurin, Midostaurin]","Plasma concentration, Max",[2]; [6],LLOQ
same,"Plasma concentration, Median",[2]; [6],LLOQ
same,"Plasma concentration, Min",[2]; [6],LLOQ
same,"Plasma concentration, Max",[2]; [7],LLOQ
same,"Plasma concentration, Median",[2]; [7],LLOQ
same,"Plasma concentration, Min",[2]; [7],LLOQ
same,"Plasma concentration, Max",[2]; [8],1040 ng/mL
same,"Plasma concentration, Min",[2]; [8],LLOQ
same,"Plasma concentration, Max",[2]; [9],83.8 ng/mL
same,"Plasma concentration, Median",[2]; [9],LLOQ
same,"Plasma concentration, Min",[2]; [9],LLOQ
same,"Plasma concentration, Max",[2]; [10],2300 ng/mL
same,"Plasma concentration, Median",[2]; [10],1170 ng/mL
same,"Plasma concentration, Min",[2]; [10],355 ng/mL
same,"Plasma concentration, Max",[2]; [11],3380 ng/mL
same,"Plasma concentration, Median",[2]; [11],1010 ng/mL
same,"Plasma concentration, Min",[2]; [11],630 ng/mL
same,"Plasma concentration, Max",[2]; [12],4980 ng/mL
same,"Plasma concentration, Median",[2]; [12],1490 ng/mL
same,"Plasma concentration, Min",[2]; [12],LLOQ
same,"Plasma concentration, Max",[2]; [13],8710 ng/mL
same,"Plasma concentration, Median",[2]; [13],2355 ng/mL
same,"Plasma concentration, Min",[2]; [13],1680 ng/mL
same,"Plasma concentration, Max",[2]; [14],7300 ng/mL
same,"Plasma concentration, Median",[2]; [14],1870 ng/mL
same,"Plasma concentration, Min",[2]; [14],87.1 ng/mL
same,"Plasma concentration, Max",[2]; [15],7120 ng/mL
same,"Plasma concentration, Median",[2]; [15],1420 ng/mL
same,"Plasma concentration, Min",[2]; [15],96.3 ng/mL
same,"Plasma concentration, Min","[2]; Concomitant, Induction cycle 1, day 22.5",LLOQ
same,"Plasma concentration, Min","[2]; Concomitant, Induction cycle 1, day 29.5",LLOQ
same,"Plasma concentration, Max",[2]; [16],LLOQ
same,"Plasma concentration, Median",[2]; [16],LLOQ
same,"Plasma concentration, Min",[2]; [16],LLOQ
same,"Plasma concentration, Max",[2]; [17],91.2 ng/mL
same,"Plasma concentration, Median",[2]; [17],LLOQ
same,"Plasma concentration, Min",[2]; [17],LLOQ
same,"Plasma concentration, Max",[2]; [18],3790 ng/mL
same,"Plasma concentration, Median",[2]; [18],1330 ng/mL
same,"Plasma concentration, Min",[2]; [18],635 ng/mL
same,"Plasma concentration, Max",[2]; [19],4000 ng/mL
same,"Plasma concentration, Min",[2]; [19],LLOQ
same,"Plasma concentration, Max",[2]; [20],2880 ng/mL
same,"Plasma concentration, Median",[2]; [20],1495 ng/mL
same,"Plasma concentration, Min",[2]; [20],460 ng/mL
same,"Plasma concentration, Max",[2]; [21],3660 ng/mL
same,"Plasma concentration, Median",[2]; [21],1585 ng/mL
same,"Plasma concentration, Min",[2]; [21],635 ng/mL
same,"Plasma concentration, Max",[2]; [22],3290 ng/mL
same,"Plasma concentration, Median",[2]; [22],1680 ng/mL
same,"Plasma concentration, Min",[2]; [22],922 ng/mL
same,"Plasma concentration, Max",[2]; [23],17100 ng/mL
same,"Plasma concentration, Median",[2]; [23],3660 ng/mL
same,"Plasma concentration, Min",[2]; [23],1290 ng/mL
same,"Plasma concentration, Max",[2]; [24],19200 ng/mL
same,"Plasma concentration, Median",[2]; [24],2755 ng/mL
same,"Plasma concentration, Min",[2]; [24],904 ng/mL
same,"Plasma concentration, Max",[2]; [25],4970 ng/mL
same,"Plasma concentration, Median",[2]; [25],57.2 ng/mL
same,Trough concentrations during off-treatment periods,[2]; midostaurin 50 mg twice daily,low or undetectable levels
same,Deaths on treatment or within 28 days of the last dose of study drug,[3],No deaths
same,Patients with ≥ 50% peripheral blood blast reduction,[4]; FLT3-mutant (n = 55),70%
same,Patients with ≥ 50% peripheral blood blast reduction,[4]; FLT3-wild-type (n = 60),42%
same,Complete remissions (CRs),[4],not observed
same,Kaplan-Meier OS probability,"[5]; 50 mg twice daily, FLT3-mutant AML, 1 year",0.85
same,Kaplan-Meier OS probability,"[5]; 50 mg twice daily, FLT3-mutant AML, 2 years",0.62
same,Complete remission (CR) rate,"[5]; 50 mg twice daily, FLT3-mutant, 12 of 13 patients",92%
same,Kaplan-Meier OS probability,"[5]; 50 mg twice daily, FLT3-wild-type AML, 1 year",0.78
same,Kaplan-Meier OS probability,"[5]; 50 mg twice daily, FLT3-wild-type AML, 2 years",0.52
same,Complete remission (CR) rate,"[5]; 50 mg twice daily, FLT3-wild-type, 20 of 27 patients",74%
same,Complete remission (CR) rate,"[5]; 50 mg twice daily, concomitant group, 16 of 20 patients",80%
same,Patients who have died,"[5]; 50 mg twice daily, of four patients with TKD mutations",none
same,Complete remission (CR) rate,"[5]; 50 mg twice daily, sequential group, 16 of 20 patients",80%
same,Complete remission rate,"[5]; 100 mg twice daily (dose schedules I and II), 13 of 29 patients",45%
same,Patients surviving more than 4 years,"[5]; 100 mg twice daily, FLT3-mutant blasts, two patients",33%
same,Complete remission rate,"[5]; 100 mg twice daily, FLT3-wild-type blasts, 8 of 23",35%
same,Patients surviving more than 4 years,"[5]; 100 mg twice daily, FLT3-wild-type blasts, nine patients",39%
